According to patent publication US11084829B2, “Ubiquitin-specific-processing protease 7 (USP7) modulators and uses thereof” (RAPT THERAPEUTICS, INC., priority 2018, dated 2021):

target: USP7 (Homo sapiens, UniProt Q93009); assay: USP7 inhibitory potency (IC50); type: biochemical
Protocol: Activity for compounds described herein is provided in Table 2, wherein potency levels are provided as follows: (Potency: USP7 IC50: A<0.01 μM; B=0.01-0.1 μM; C=>0.1 μM.

Chain of USP7 (Q93009 whole entry): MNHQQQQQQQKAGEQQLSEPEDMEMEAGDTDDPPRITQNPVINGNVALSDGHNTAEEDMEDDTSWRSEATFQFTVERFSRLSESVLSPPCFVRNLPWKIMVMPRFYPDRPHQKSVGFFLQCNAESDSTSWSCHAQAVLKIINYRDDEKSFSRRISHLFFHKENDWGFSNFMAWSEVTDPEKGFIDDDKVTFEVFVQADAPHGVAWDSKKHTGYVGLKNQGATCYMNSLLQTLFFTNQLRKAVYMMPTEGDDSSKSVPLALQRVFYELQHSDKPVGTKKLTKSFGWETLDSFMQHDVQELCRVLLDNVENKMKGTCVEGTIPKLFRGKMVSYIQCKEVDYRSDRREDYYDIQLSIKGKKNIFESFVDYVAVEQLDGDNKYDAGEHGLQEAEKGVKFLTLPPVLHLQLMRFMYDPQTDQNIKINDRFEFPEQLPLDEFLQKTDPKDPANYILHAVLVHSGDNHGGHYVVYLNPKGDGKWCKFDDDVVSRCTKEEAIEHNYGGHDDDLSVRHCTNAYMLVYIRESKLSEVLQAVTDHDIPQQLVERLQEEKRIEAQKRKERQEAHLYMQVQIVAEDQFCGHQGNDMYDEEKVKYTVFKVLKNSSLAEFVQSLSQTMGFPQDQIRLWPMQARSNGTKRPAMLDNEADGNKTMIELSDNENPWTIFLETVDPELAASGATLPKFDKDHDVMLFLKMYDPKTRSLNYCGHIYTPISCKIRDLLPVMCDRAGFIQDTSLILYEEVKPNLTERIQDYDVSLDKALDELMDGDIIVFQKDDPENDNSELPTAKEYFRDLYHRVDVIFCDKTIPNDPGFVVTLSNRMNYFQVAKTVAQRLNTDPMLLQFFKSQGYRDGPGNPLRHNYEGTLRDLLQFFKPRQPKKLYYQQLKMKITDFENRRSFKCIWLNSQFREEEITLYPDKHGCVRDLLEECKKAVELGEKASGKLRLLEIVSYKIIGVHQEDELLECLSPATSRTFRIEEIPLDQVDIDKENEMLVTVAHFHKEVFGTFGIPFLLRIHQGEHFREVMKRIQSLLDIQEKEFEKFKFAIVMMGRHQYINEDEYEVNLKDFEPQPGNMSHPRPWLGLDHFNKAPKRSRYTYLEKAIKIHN

IC50, > 0.1 µM:
Cc1cc(Cl)cc(-c2ncnc3cc(CN4C(=O)CC[C@@H]4C(=O)O)sc23)c1C[C@@H]1CNCC(C)(C)O1 [Example 225, (R)-1-((4-(5-chloro-2-(((R)-6,6-dimethylmorpholin-2-yl)methyl)-3-methylphenyl)thieno[3,2-d]pyrimidin-6-yl)methyl)-5-oxopyrrolidine-2-carboxylic acid]

IC50, < 0.01 µM:
O=C1CCC(=O)N1Cc1cc2ncnc(-c3cc(Cl)cc(Cl)c3CC3CNCCO3)c2s1 (stereo not shown) [Example 204, 1-((4-(3,5-dichloro-2-(morpholin-2-ylmethyl)phenyl)thieno[3,2-d]pyrimidin-6-yl)methyl)pyrrolidine-2,5-dione]
CN1CCC(=O)N(Cc2cc3ncnc(-c4cc(Cl)cc(Cl)c4CC4CNCCO4)c3s2)C1=O (stereo not shown) [Example 205, 3-((4-(3,5-dichloro-2-(morpholin-2-ylmethyl)phenyl)thieno[3,2-d]pyrimidin-6-yl)methyl)-1-methyldihydropyrimidine-2,4(1H,3H)-dione]
Cc1cc(Cl)cc(-c2ncnc3cc(CN4C(=O)C5CC5C4=O)sc23)c1CC1CNCC2(CCC2)O1 (stereo not shown) [Example 207, 3-((4-(2-((5-oxa-8-azaspiro[3.5]nonan-6-yl)methyl)-5-chloro-3-methylphenyl)thieno[3,2-d]pyrimidin-6-yl)methyl)-3-azabicyclo[3.1.0]hexane-2,4-dione]
Cc1cc(Cl)cc(-c2ncnc3cc(CN4C(=O)C5CC5C4=O)sc23)c1CC1CNCC2(CC2)O1 (stereo not shown) [Example 208, 3-((4-(2-((4-oxa-7-azaspiro[2.5]octan-5-yl)methyl)-5-chloro-3-methylphenyl)thieno[3,2-d]pyrimidin-6-yl)methyl)-3-azabicyclo[3.1.0]hexane-2,4-dione]
Cc1cc(Cl)cc(-c2ncnc3cc(C(C)N4C(=O)C5C(C4=O)C5(C)C)sc23)c1C[C@@H]1CNCCO1 (stereo partly drawn) [Example 209, 3-(1-(4-(5-chloro-3-methyl-2-(((R)-morpholin-2-yl)methyl)phenyl)thieno[3,2-d]pyrimidin-6-yl)ethyl)-6,6-dimethyl-3-azabicyclo[3.1.0]hexane-2,4-dione]
CN1CCC(=O)N(Cc2cc3ncnc(-c4cc(Cl)cc(Cl)c4CC4CNCC(C)(C)O4)c3s2)C1=O (stereo not shown) [Example 210, 3-((4-(3,5-dichloro-2-((6,6-dimethylmorpholin-2-yl)methyl)phenyl)thieno[3,2-d]pyrimidin-6-yl)methyl)-1-methyldihydropyrimidine-2,4(1H,3H)-dione]
CC1(C)CNCC(Cc2c(Cl)cc(Cl)cc2-c2ncnc3cc(CN4C(=O)CCC4=O)sc23)O1 (stereo not shown) [Example 211, 1-((4-(3,5-dichloro-2-((6,6-dimethylmorpholin-2-yl)methyl)phenyl)thieno[3,2-d]pyrimidin-6-yl)methyl)pyrrolidine-2,5-dione]
Cc1cc(Cl)cc(-c2ncnc3cc(CN4C(=O)CCC4=O)sc23)c1C[C@@H]1CNCC(C)(C)O1 [Example 215, (R)-1-((4-(5-chloro-2-((6,6-dimethylmorpholin-2-yl)methyl)-3-methylphenyl)thieno[3,2-d]pyrimidin-6-yl)methyl)pyrrolidine-2,5-dione]
Cc1cc(Cl)cc(-c2ncnc3cc(CN4C(=O)C5CC5C4=O)sc23)c1C[C@@H]1CNCC(C)(C)O1 (stereo partly drawn) [Example 216, 3-((4-(5-chloro-2-(((R)-6,6-dimethylmorpholin-2-yl)methyl)-3-methylphenyl)thieno[3,2-d]pyrimidin-6-yl)methyl)-3-azabicyclo[3.1.0]hexane-2,4-dione]
Cc1cc(Cl)cc(-c2ncnc3cc(CN4C(=O)CCN(C)C4=O)sc23)c1C[C@@H]1CNCC(C)(C)O1 [Example 217, (R)-3-((4-(5-chloro-2-((6,6-dimethylmorpholin-2-yl)methyl)-3-methylphenyl)thieno[3,2-d]pyrimidin-6-yl)methyl)-1-methyldihydropyrimidine-2,4(1H,3H)-dione]
Cc1cc(Cl)cc(-c2ncnc3cc(Cn4c(=O)ccn(C)c4=O)sc23)c1C[C@@H]1CNCC(C)(C)O1 [Example 218, (R)-3-((4-(5-chloro-2-((6,6-dimethylmorpholin-2-yl)methyl)-3-methylphenyl)thieno[3,2-d]pyrimidin-6-yl)methyl)-1-methylpyrimidine-2,4(1H,3H)-dione]
Cc1cc(Cl)cc(-c2ncnc3cc(CN4C(=O)CC[C@@H]4CF)sc23)c1C[C@@H]1CNCC(C)(C)O1 [Example 219, (R)-1-((4-(5-chloro-2-(((R)-6,6-dimethylmorpholin-2-yl)methyl)-3-methylphenyl)thieno[3,2-d]pyrimidin-6-yl)methyl)-5-(fluoromethyl)pyrrolidin-2-one]
Cc1cc(Cl)cc(-c2ncnc3cc(CN4C(=O)C5CC5C4=O)sc23)c1CC1CNCC2(COC2)O1 (stereo not shown) [Example 220, 3-((4-(2-((2,5-dioxa-8-azaspiro[3.5]nonan-6-yl)methyl)-5-chloro-3-methylphenyl)thieno[3,2-d]pyrimidin-6-yl)methyl)-3-azabicyclo[3.1.0]hexane-2,4-dione]
Cc1cc(Cl)cc(-c2ncnc3cc(CN4C(=O)CCN(C)C4=O)sc23)c1CC1CNCC2(CCC2)O1 (stereo not shown) [Example 222, 3-((4-(2-((5-oxa-8-azaspiro[3.5]nonan-6-yl)methyl)-5-chloro-3-methylphenyl)thieno[3,2-d]pyrimidin-6-yl)methyl)-1-methyldihydropyrimidine-2,4(1H,3H)-dione]
Cc1cc(Cl)cc(-c2ncnc3cc(Cn4c(=O)ccn(C)c4=O)sc23)c1CC1CNCC2(CCC2)O1 (stereo not shown) [Example 223, 3-((4-(2-((5-oxa-8-azaspiro[3.5]nonan-6-yl)methyl)-5-chloro-3-methylphenyl)thieno[3,2-d]pyrimidin-6-yl)methyl)-1-methylpyrimidine-2,4(1H,3H)-dione]
COC(=O)[C@H]1CCC(=O)N1Cc1cc2ncnc(-c3cc(Cl)cc(C)c3C[C@@H]3CNCC(C)(C)O3)c2s1 [Example 224, methyl (R)-1-((4-(5-chloro-2-(((R)-6,6-dimethylmorpholin-2-yl)methyl)-3-methylphenyl)thieno[3,2-d]pyrimidin-6-yl)methyl)-5-oxopyrrolidine-2-carboxylate]
CC1(C)C2C(=O)N(Cc3cc4ncnc(-c5cc(Cl)cc(Cl)c5CC5CNCCO5)c4s3)C(=O)C21 (stereo not shown) [Example 226, 3-((4-(3,5-dichloro-2-(morpholin-2-ylmethyl)phenyl)thieno[3,2-d]pyrimidin-6-yl)methyl)-6,6-dimethyl-3-azabicyclo[3.1.0]hexane-2,4-dione]
CC1(C)CNCC(Cc2c(Cl)cc(Cl)cc2-c2ncnc3cc(CN4C(=O)C5CC5C4=O)sc23)O1 (stereo not shown) [Example 227, 3-((4-(3,5-dichloro-2-((6,6-dimethylmorpholin-2-yl)methyl)phenyl)thieno[3,2-d]pyrimidin-6-yl)methyl)-3-azabicyclo[3.1.0]hexane-2,4-dione]
Cc1cc(Cl)cc(-c2ncnc3cc(CN4C(=O)CC[C@@H]4C(F)F)sc23)c1CC1CNCC(C)(C)O1 (stereo partly drawn) [Example 230, (5R)-1-((4-(5-chloro-2-((6,6-dimethylmorpholin-2-yl)methyl)-3-methylphenyl)thieno[3,2-d]pyrimidin-6-yl)methyl)-5-(difluoromethyl)pyrrolidin-2-one]

IC50, 0.01 to 0.1 µM:
Cc1cc(Cl)cc(-c2ncnc3cc(CNC4(CCC(=O)O)CC4)sc23)c1CC1CNCC(C)(C)O1 (stereo not shown) [Example 202, 3-(1-(((4-(5-chloro-2-((6,6-dimethylmorpholin-2-yl)methyl)-3-methylphenyl)thieno[3,2-d]pyrimidin-6-yl)methyl)amino)cyclopropyl)propanoic acid]
Cc1cc(Cl)cc(-c2ncnc3cc(CN4C(=O)CCC45CC5)sc23)c1CC1CNCC(C)(C)O1 (stereo not shown) [Example 203, 4-((4-(5-chloro-2-((6,6-dimethylmorpholin-2-yl)methyl)-3-methylphenyl)thieno[3,2-d]pyrimidin-6-yl)methyl)-4-azaspiro[2.4]heptan-5-one]
Cc1cc(Cl)cc(-c2ncnc3cc(CN4C(=O)CC[C@@H]4CO)sc23)c1CC1CNCC(C)(C)O1 (stereo partly drawn) [Example 206, (5R)-1-((4-(5-chloro-2-((6,6-dimethylmorpholin-2-yl)methyl)-3-methylphenyl)thieno[3,2-d]pyrimidin-6-yl)methyl)-5-(hydroxymethyl)pyrrolidin-2-one]
Cc1cc(Cl)cc(-c2ncnc3cc(CN4C(=O)CCC4=O)sc23)c1C[C@H]1CNCC(C)(C)O1 [Example 212, (S)-1-((4-(5-chloro-2-((6,6-dimethylmorpholin-2-yl)methyl)-3-methylphenyl)thieno[3,2-d]pyrimidin-6-yl)methyl)pyrrolidine-2,5-dione]
Cc1cc(Cl)cc(-c2ncnc3cc(CN4C(=O)C5CC5C4=O)sc23)c1C[C@H]1CNCC(C)(C)O1 (stereo partly drawn) [Example 213, 3-((4-(5-chloro-2-(((S)-6,6-dimethylmorpholin-2-yl)methyl)-3-methylphenyl)thieno[3,2-d]pyrimidin-6-yl)methyl)-3-azabicyclo[3.1.0]hexane-2,4-dione]
Cc1cc(Cl)cc(-c2ncnc3cc(CN4C(=O)CCN(C)C4=O)sc23)c1C[C@H]1CNCC(C)(C)O1 [Example 214, (S)-3-((4-(5-chloro-2-((6,6-dimethylmorpholin-2-yl)methyl)-3-methylphenyl)thieno[3,2-d]pyrimidin-6-yl)methyl)-1-methyldihydropyrimidine-2,4(1H,3H)-dione]
Cc1cc(Cl)cc(-c2ncnc3cc(CN4CC(C(F)F)CC4=O)sc23)c1C[C@@H]1CNCC(C)(C)O1 (stereo partly drawn) [Example 228, 1-((4-(5-chloro-2-(((R)-6,6-dimethylmorpholin-2-yl)methyl)-3-methylphenyl)thieno[3,2-d]pyrimidin-6-yl)methyl)-4-(difluoromethyl)pyrrolidin-2-one]
COC[C@H]1CCC(=O)N1Cc1cc2ncnc(-c3cc(Cl)cc(C)c3CC3CNCC(C)(C)O3)c2s1 (stereo partly drawn) [Example 229, (5R)-1-((4-(5-chloro-2-((6,6-dimethylmorpholin-2-yl)methyl)-3-methylphenyl)thieno[3,2-d]pyrimidin-6-yl)methyl)-5-(methoxymethyl)pyrrolidin-2-one]
